The text below walks through data of ChEMBL document CHEMBL1157182, “Structural insights into the Plasmodium falciparum histone deacetylase 1 (PfHDAC-1): A novel target for the development of antimalarial therapy” (Bioorg Med Chem, 2008).

For experiment [1], the system named is Plasmodium falciparum. The experiment in a line: Antimalarial activity against chloroquine-resistant Plasmodium falciparum W2 after 48 hrs by LDH reporter assay. The class given is functional, organism-based. The conditions noted are these: W2, 48 h.
Experiment [2] concerns Plasmodium falciparum. The experiment can be described thus: Antimalarial activity against chloroquine-sensitive Plasmodium falciparum D6 after 48 hrs by LDH reporter assay. The class given is functional, organism-based. The settings on record: D6, 48 h. On the technique in general: A reporter such as luciferase makes a cellular process visible.

Turning to `C[C@@H]1CC[C@H]2[C@@H](C)C(=O)O[C@@H]3O[C@@]4(C)CC[C@@H]1[C@]32OO4` [ARTEMISININ], the IC50 in the experiment with Plasmodium falciparum [1] (read-out: IC50) came to 1 nM; in the experiment with Plasmodium falciparum [2] (read-out: IC50), 9 nM.
As for `O=C(CCCCCCCC(=O)NO)NO` [AZELAIC BIS HYDROXAMIC ACID], the IC50 was 3900 nM in the experiment on Plasmodium falciparum [1] (read-out: IC50), 3890 nM in the experiment with Plasmodium falciparum [1] (read-out: pIC50 (converted)), 5500 nM in the experiment with Plasmodium falciparum [2] (read-out: IC50) and 5500 nM in the experiment with Plasmodium falciparum [2] (read-out: pIC50 (converted)).
For the molecule `O=C(NO)c1ccccc1O` [SALICYLHYDROXAMIC ACID], the IC50 was 51300 nM with Plasmodium falciparum [1] (read-out: IC50), 51300 nM in the experiment with Plasmodium falciparum [1] (read-out: pIC50 (converted)), 35700 nM with Plasmodium falciparum [2] (read-out: IC50) and 35500 nM with Plasmodium falciparum [2] (read-out: pIC50 (converted)).
In the case of `O=C(CCCCCCC(=O)NO)NO` [SUBEROHYDROXAMIC ACID], the IC50 with Plasmodium falciparum [1] (read-out: IC50) is 1530 nM; in the experiment on Plasmodium falciparum [1] (read-out: pIC50 (converted)), 1510 nM; in the experiment on Plasmodium falciparum [2] (read-out: IC50), 2230 nM; in the experiment with Plasmodium falciparum [2] (read-out: pIC50 (converted)), 2240 nM.
On the same counts, the results for `CC(/C=C/C(=O)NO)=C\[C@@H](C)C(=O)c1ccc(N(C)C)cc1` [TRICHOSTATIN] are 10 nM, 9.77 nM, 15.6 nM and 15.5 nM.
